Assay results reported in PubChem BioAssay AID1996.
Converted amounts (≈) assume the structure as drawn.

Details: buffer; pH 7.4; 200.0 µM

| Compound | solubility kinetic [µg/mL] |
| --- | --- |
| CCc1ccc(NC(=O)c2[nH]c(C)c(C(C)=O)c2C)cc1 | 5.1 (≈ 17.9 µM) |
| NC(=O)C1CCN(C(=O)C2CC(=O)N(c3ccc(F)cc3)C2)CC1 (stereo unspecified) | 26.5 (≈ 79.5 µM) |
| O=C(c1cc(Cl)ccc1Cl)N1CCN(Cc2ccccc2)CC1 | > 52.4 |
| CC(C)N(C(=O)COC(=O)c1ccc(Cl)nc1)C(C)C | 30.7 (≈ 103 µM) |
| O=[N+]([O-])c1ccccc1CNC1CCCc2ccccc21 (stereo unspecified) | 20.8 (≈ 73.7 µM) |
| CCn1c(C)nnc1SCC(=O)Nc1ccc(C(C)=O)cc1 | > 47.8 |
| CCCC(=O)NCc1nc2ccccc2n1CC(=O)c1ccccc1 | > 50.3 |
| O=C(CSc1nc2ncccc2[nH]1)NCc1ccco1 | > 43.2 |
| Cc1ccccc1NC(=O)CON=C(N)c1ccccc1 | > 42.5 |
| Cn1cnnc1SCC(=O)NCCC1=CCCCC1 | > 42.1 |
| COCC[N+]1(C)CCCCC1.[I-] | > 42.8 |
| COc1ccc2nc(SC)c(C#N)cc2c1 | < 0.2 |
| CCC1(c2ccc(N)cc2)CCC(=O)NC1=O (stereo unspecified) | > 34.8 |
| O=C(NCc1ccco1)C(=O)c1cn(CC(=O)N2CCCCCC2)c2ccccc12 | 14.3 (≈ 35.1 µM) |
| N/C(=N\OC(=O)c1ccc2c(c1)OCO2)c1ccncc1 | > 42.8 |
| CCCNC(=O)c1ccc2c(c1)ncn2-c1cc(C)cc(C)c1 | 38.4 (≈ 125 µM) |
| O=C(Cc1ccccc1)Nc1ncccc1Cl | > 37 |
| COc1ccc2oc(=N)c(C(=O)Nc3ccc(Cl)cc3)cc2c1 | < 0.4 |
| O=C(COC(=O)CCc1ccccc1)NCc1ccccc1 | > 44.6 |
| COc1ccc(N2Cc3ccccc3C2=O)cc1 | 12.8 (≈ 53.5 µM) |
| Cc1onc(-c2ccccc2Cl)c1C(=O)N1CC(C)CC(C)C1 (stereo unspecified) | > 49.9 |

| Compound | solubility kinetic [µg/mL] |
| --- | --- |
| O=C1COc2ccc(S(=O)(=O)N3CCCCCC3)cc2N1 | > 46.6 |
| CC1=NOC(=O)/C1=C/c1ccc(O)c(Cl)c1 | > 35.6 |
| Cl.O=C(CCl)N1CCN(CC(=O)N2CCCC2)CC1 | > 46.5 |
| CC(C)c1ccc(N(CC(=O)N2CCOCC2)S(C)(=O)=O)cc1 | 32.9 (≈ 96.6 µM) |
| CC(C(=O)Nc1ccc(C#N)cc1)N(C)CC(=O)Nc1cccc(F)c1 (stereo unspecified) | 5.9 (≈ 16.6 µM) |
| C=CCn1c(O)c(C(C)=NC(C)c2ccccc2)c(=O)[nH]c1=O (stereo unspecified) | > 47 |
| CC(=O)c1sc(NC(=O)c2ccc3c(c2)OCO3)nc1C | 0.9 (≈ 2.96 µM) |
| CN(C)C(=O)COC(=O)c1ccccc1NC(=O)c1ccco1 | > 47.4 |
| CS(=O)(=O)Nc1ccc(C(=O)Nc2ccccc2-c2ccccc2)cc1 | 42.4 (≈ 116 µM) |
| O=C(CSc1ccccc1)NC1=NCCS1 | 32.4 (≈ 128 µM) |
| COC(=O)c1cccc(NC(=S)Nc2ccccc2Cl)c1 | 41.4 (≈ 129 µM) |
| CCCn1c(C(O)c2cccc(OC)c2)nc2ccccc21 (stereo unspecified) | 39.4 (≈ 133 µM) |
| O=C(c1ccc(Cl)cc1)N1CCN(c2ncccn2)CC1 | > 45.4 |
| Cc1ccc(S(=O)(=O)NC2CCSC2=O)cc1C (stereo unspecified) | 3.1 (≈ 10.9 µM) |
| Cc1ccc(NC(=O)C/C(N)=N/O)cc1Cl | > 36.3 |
| CCc1ccc(NC(=O)COC(=O)CCC2CCCC2)cc1 | 7.9 (≈ 26 µM) |
| CC(C(=O)NC1CCCC1)N1CCN(Cc2ccccc2)CC1 (stereo unspecified) | > 47.3 |
| O=C(CSc1nccc(=O)[nH]1)NCc1ccco1 | > 39.8 |
| COc1ccc(CCC(=O)NCc2ccc3c(c2)OCO3)cc1 | 23.1 (≈ 73.7 µM) |
| c1ccc(-c2nc(-c3cccnc3)cs2)cc1 | 21.4 (≈ 89.8 µM) |
| COc1ccc(C(=O)CN2C(=O)NC3(CCc4ccccc43)C2=O)cc1 (stereo unspecified) | 25.3 (≈ 72.2 µM) |

| Compound | solubility kinetic [µg/mL] |
| --- | --- |
| NC(=O)c1ccc(NC(=O)C2CCCC2)cc1 | > 34.8 |
| COc1ccc(NC(=O)/C(C#N)=C/c2ccc(-c3ccccc3C(=O)O)o2)cc1 | > 58.3 |
| COc1cccc(CC(=O)NCCCSc2ccccc2)c1 | 47.3 (≈ 150 µM) |
| CC1(C)CC(=O)C=C(NNC(=O)c2cccnc2)C1 | > 38.9 |
| COc1ccc(NC(=O)COC(=O)CCNC(=O)c2ccco2)cc1Cl | > 57.1 |
| CC(N)Cc1c[nH]c2c1ccc1ccccc12.Cl (stereo unspecified) | 33.9 |
| CCN1CCc2c(OCC(=O)Nc3ccc4c(c3)OCCO4)cccc2C1=O | 29.8 (≈ 77.9 µM) |
| NC(=O)C1CCN(C(=O)NC(=O)c2ccccc2)CC1 | > 41.3 |
| Cc1ccccc1NC(=O)C(Cc1ccccc1)n1cccc1 (stereo unspecified) | 7.4 (≈ 24.3 µM) |
| CC(C(=O)Nc1cc(Cl)cc(Cl)c1)N1CCCC1 (stereo unspecified) | > 43.1 |
| Cc1ccc(C(=O)Nc2ccc(Nc3ccccc3)cc2)cc1C | 2.3 (≈ 7.27 µM) |
| CC(C(=O)O/N=C(\N)c1ccccn1)c1ccc([N+](=O)[O-])cc1 (stereo unspecified) | > 47.1 |
| O=C(Cc1c[nH]c2ccccc12)Nc1ccc(N2CCOCC2)cc1 | 10.1 (≈ 30.1 µM) |
| Cc1ccc2nc(-c3ccc(Br)cc3)cn2c1 | < 0.3 |
| CC(=O)Nc1ccc(OC(=O)Cc2ccc(Cl)cc2)cc1 | 1.4 (≈ 4.61 µM) |
| Cc1ccccc1N1CCN(Cc2cc3c(cc2[N+](=O)[O-])OCO3)CC1 | 3.5 (≈ 9.85 µM) |
| CCc1nnc(NC(=O)C2CC(=O)N(Cc3ccccc3)C2)s1 (stereo unspecified) | > 49.6 |
| COc1ccccc1CNc1cncnc1 | 28.2 (≈ 131 µM) |
| O=C1CSC(c2cccnc2)N1CCc1ccccn1 (stereo unspecified) | > 42.8 |
